Holding throughout (assay type): cell-based
Experiment [1] has as its system BT-474 cells (HER2 overexpressing cell line). The experiment is described as follows: BT-474 cell proliferation inhibitory activity (CellTiter-Glo, 120 hours). The conditions noted are these: Homo sapiens. Put shortly: (§1)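 GI50 derived from % growth versus control from CellTiter-Glo luminescence, each test run three times. SK-BR-3 and BT-474 are seeded 48 h ahead at 5000/well and dosed at 0.2 nM–10 μM. N-87 (5000/well) gets […]–5 μM and HaCaT (3000/well) gets 0.8 nM–45 μM, both seeded 24 h ahead.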

Experiment [2] concerns N-87 cells (HER2 overexpressing cell line). The experiment is described as follows: N-87 cell proliferation inhibitory activity (CellTiter-Glo, 72 hours). Here is the method:
To evaluate the cell proliferation inhibitory activity of the compound according to the present invention on HER2 and EGFR kinases, the following method was performed using HER2 overexpressing cell lines (SK-BR-3, BT-474, and N-87) and EGFR expressing cell line (HaCaT).
McCOY'S 5A supplemented with 10% FBS was used for SK-BR-3 cells, RPMI-1640 medium supplemented with 20% FBS was used for BT-474 cancer cells, and RPMI-1640 medium supplemented with 10% FBS was used for N-87 cancer cells. DMEM supplemented with 10% FBS was used for HaCaT cells.
For SK-BR-3 cells, 5000 cells were aliquoted into each well of a white clear bottom 96 well plate (Corning) 48 hours before treatment with the compounds of Examples. For BT-474 cells, 5000 cells were aliquoted into each well of a white clear bottom 96 well plate (Corning) 48 hours before treatment with the compounds of Examples. For N-87 cells, 5000 cells were aliquoted into each well of a white clear bottom 96 well plate (Corning) 24 hours before treatment with the compounds of Examples. For HaCaT cells, 3000 cells were aliquoted into each well of a white clear bottom 96 well plate (Corning) 24 hours before treatment with the compounds of Examples. For SK-BR-3 cells and BT-474 cells, the compounds of Examples were diluted in dimethyl sulfoxide (three-fold dilution, a total of 11 concentrations) and injected each in an amount of 1 μl to a final concentration of 0.2 nM to 10 μM. For N-87 cells, the compounds of Examples were diluted in dimethyl sulfoxide (five-fold dilution, a total of 11 concentrations) and injected each in an amount of 0.5 μl to a final concentration of […] to 5 μM. For HaCaT cells, the compounds of Examples were diluted in dimethyl sulfoxide (three-fold dilution, a total of 11 concentrations) and injected each in an amount of 0.5 μl to a final concentration of 0.8 nM to 45 μM. For the measurement of living cells, the cells were stored at room temperature for 10 minutes using CellTiter-Glo cell viability reagent (Promega) after a certain period of time (SK-BR-3: 120 hours, BT-474: 120 hours, N-87: 72 hours, and HaCaT: 72 hours) post treatment with the compounds of Examples, and the luminescence intensity thereof was measured using a reader (SynergyNeo, Biotek). Each test was repeated three times.
The result values were calculated as a cell growth rate (%) compared to those of the control group. A graph was created using the GraphPad Prism version 5.0 program, and GI50 values were calculated.

Experiment [3] concerns HaCaT cells (EGFR expressing cell line). The experiment in a line: HaCaT cell proliferation inhibitory activity (CellTiter-Glo, 72 hours). To be noted: Homo sapiens. In outline: as §1
The subject of experiment [4] is SK-BR-3 cells (HER2 overexpressing cell line). The experiment is described as follows: SK-BR-3 cell proliferation inhibitory activity (CellTiter-Glo, 120 hours). The conditions noted are these: Homo sapiens. Put shortly:
as §1
(ATP-based viability assays read luminescence as a measure of living cells.)

For orientation: GI50 means the concentration at which growth is held to half of that of the control.

As to `C=CC(=O)N1CCC(Oc2cc3c(Nc4cc(-c5ccco5)ccc4OC)ncnc3cc2OC)[C@H](C)C1` (stereo in doubt) [Example 169, 1-((3R,4S)-4-((4-((5-(furan-2-yl)-2-methoxyphenyl)amino)-7-methoxy-quinazolin-6-yl)oxy)-3-methylpiperidin-1-yl)prop-2-en-1-one], the GI50 in experiment [1], in experiment [2] and in experiment [3] was at most 150 nM in each case.
As to `C=CC(=O)N1CCC(Oc2cc3c(Nc4cc(-c5ccc(F)c(NC(C)=O)c5F)ccc4OC)ncnc3cc2OC)CC1` [Example 1, N-(3′-((6-((1-acryloylpiperidin-4-yl)oxy)-7-methoxyquinazolin-4-yl)amino)-2,4-difluoro-4′-methoxy-[1,1′-biphenyl]-3-yl)acetamide], the GI50 in experiment [1] was at most 150 nM; in experiment [2] it was at most 150 nM; in experiment [3], over 1000 nM.
Turning to `C=CC(=O)N1CCC(Oc2cc3c(Nc4cc(-c5ccc(F)c(NC(=O)C6CC6)c5F)ccc4OC)ncnc3cc2OC)CC1` [Example 2, N-(3'-((6-((1-acryloylpiperidin-4-yl)oxy)-7-methoxy-quinazolin-4-yl)amino)-2,4-difluoro-4′-methoxy-[1,11 biphenyl]-3-yl)cyclopropan-carboxamide], the GI50 in experiment [1] was at most 150 nM; in experiment [2], at most 150 nM; in experiment [3], over 1000 nM.
Consider `C=CC(=O)N1CC(Oc2cc3c(Nc4cc(-c5ccc(F)c(NC(=O)C6CC6)c5F)ccc4OC)ncnc3cc2OC)C1` [Example 3, N-(3′-((6-((1-acryloylazetidin-3-yl)oxy)-7-methoxy-quinazolin-4-yl)amino)-2,4-difluoro-4′-methoxy-[1,1′-biphenyl]-3-yl)cyclopropan-carboxamide], for which the 50% growth inhibitory concentration (GI50) in experiment [1] is at most 150 nM; in experiment [2] it was at most 150 nM; in experiment [3] it was 150 to 1000 nM.
Take `C=CC(=O)N1CCC(Oc2cc3c(Nc4cc(-c5ccc(F)c(NC(=O)C6CC6)c5)ccc4OC)ncnc3cc2OC)CC1` [Example 4, N-(3′-((6-((1-acryloylpiperidin-4-yl)oxy)-7-methoxy-quinazolin-4-yl)amino)-4-fluoro-4′-methoxy-[1,1'-biphenyl]-3-yl)cyclopropan-carboxamide]: the GI50 was at most 150 nM in experiment [1], at most 150 nM in experiment [2] and over 1000 nM in experiment [3].
`C=CC(=O)N1CCC(Oc2cc3c(Nc4cc(-c5ccc(F)c(N6CC(F)(F)C6)c5)ccc4OC)ncnc3cc2OC)CC1` [Example 129, 1-(4-((4-((3′-(3,3-difluoroazetidin-1-yl)-4′-fluoro-4-methoxy-[1,1′-biphenyl]-3-yl)amino)-7-methoxy-quinazolin-6-yl)oxy)piperidin-1-yl)prop-2-en-1-one]: the concentration for 50% growth inhibition (GI50) in experiment [1] is at most 150 nM; in experiment [2] it was at most 150 nM; in experiment [3] it was 150 to 1000 nM.
In the case of `C=CC(=O)N1CCC(Oc2cc3c(Nc4cc(-c5ccc(F)c(N)c5)ccc4OC)ncnc3cc2OC)CC1` [Example 146, 1-(4-((4-((3′-amino-4′-fluoro-4-methoxy-[1,1′-biphenyl]-3-yl)amino)-7-methoxy-quinazolin-6-yl)oxy)piperidin-1-yl)prop-2-en-1-one], the results for the 50% growth inhibitory concentration (GI50) in experiment [4], in experiment [2] and in experiment [3] were at most 150 nM, at most 150 nM and over 1000 nM, respectively.
`C=CC(=O)N1CCC(Oc2cc3c(Nc4cc(-c5ccc(F)cc5F)ccc4OC)ncnc3cc2O[C@@H]2CCOC2)CC1` [Example 281, (R)-1-(4-((4-((2′,4′-difluoro-4-methoxy-[1,1′-biphenyl]-3-yl)amino)-7-((tetrahydrofuran-3-yl)oxy)quinazolin-6-yl)oxy)piperidin-1-yl)prop-2-en-1-one]: the concentration for 50% growth inhibition (GI50) in experiment [4], in experiment [2] and in experiment [3] was at most 150 nM each time.
For `COc1cc2ncnc(Nc3cc(-c4ccco4)ccc3OC)c2cc1NC(=O)/C(F)=C\[C@@H]1CCCN1C` [Example 309, (S,E)-2-fluoro-N-(4-((5-(furan-2-yl)-2-methoxyphenyl)amino)-7-methoxyquinazolin-6-yl)-3-(1-methylpyrrolidin-2-yl)acrylamide], the concentration for 50% growth inhibition (GI50) in experiment [1] and in experiment [3] was at most 150 nM each time.
Take `COc1cc2ncnc(Nc3cc(-c4ccco4)ccc3OC)c2cc1NC(=O)/C=C/CN1CCN(C)CC1` [Example 314, (E)-N-(4-((5-(furan-2-yl)-2-methoxyphenyl)amino)-7-methoxyquinazolin-6-yl)-4-(4-methylpiperazin-1-yl)but-2-enamide]: the concentration for 50% growth inhibition (GI50) in experiment [1] and in experiment [3] was at most 150 nM in each case.
`COc1cc2ncnc(Nc3cc(-c4ccco4)ccc3OC)c2cc1NC(=O)/C=C/CN1CCOCC1` [Example 315, (E)-N-(4-((5-(furan-2-yl)-2-methoxyphenyl)amino)-7-methoxyquinazolin-6-yl)-4-morpholinobut-2-enamide]: the 50% growth inhibitory concentration (GI50) in experiment [1] and in experiment [3] was at most 150 nM each time.
As for `COc1cc2ncnc(Nc3cc(-c4ccc(F)cc4F)ccc3OC)c2cc1NC(=O)/C=C/CN1CCOCC1` [Example 316, (E)-N-(4-((2′,4′-difluoro-4-methoxy-[1,1′-biphenyl]-3-yl)amino)-7-methoxyquinazolin-6-yl)-4-morpholinobut-2-enamide], the GI50 in experiment [1] and in experiment [3] was at most 150 nM in each case.
Regarding `COc1cc2ncnc(Nc3cc(-c4ccc(F)cc4F)ccc3OC)c2cc1NC(=O)/C=C/CN1CCN(C)CC1` [Example 317, (E)-N-(4-((2′,4′-difluoro-4-methoxy-[1,1′-biphenyl]-3-yl)amino)-7-methoxyquinazolin-6-yl)-4-(4-methylpiperazin-1-yl)but-2-enamide], the GI50 in experiment [1] and in experiment [3] was at most 150 nM throughout.
In the case of `COc1cc2ncnc(Nc3cc(-c4ccco4)ccc3OC)c2cc1NC(=O)/C=C/CN1C2COCC1C2` [Example 318, (E)-4-(3-oxa-6-azabicyclo[3.1.1]heptan-6-yl)-N-(4-((5-(furan-2-yl)-2-methoxyphenyl)amino)-7-methoxyquinazolin-6-yl)but-2-enamide], the GI50 in experiment [1] and in experiment [3] was at most 150 nM each time.
As to `COc1cc2ncnc(Nc3cc(-c4ccc(F)cc4F)ccc3OC)c2cc1NC(=O)/C=C/CN1C2COCC1C2` [Example 319], the GI50 in experiment [1] and in experiment [3] was at most 150 nM throughout.
As for `COc1ccc(-c2ccc(F)cc2F)cc1Nc1ncnc2ccc(NC(=O)/C=C/CN(C)C)c(Cl)c12` [Example 320, (E)-N-(5-chloro-4-((2′,4′-difluoro-4-methoxy-[1,1′-biphenyl]-3-yl)amino)quinazolin-6-yl)-4-(dimethylamino)but-2-enamide], the concentration for 50% growth inhibition (GI50) in experiment [1] and in experiment [3] was 150 to 1000 nM each time.
As for `COc1ccc(-c2ccco2)cc1Nc1ncnc2ccc(NC(=O)/C=C/CN(C)C)c(Cl)c12` [Example 321, (E)-N-(5-chloro-4-((5-(furan-2-yl)-2-methoxyphenyl)amino)quinazolin-6-yl)-4-(dimethylamino)but-2-enamide], the GI50 in experiment [1] is over 1000 nM; in experiment [3], 150 to 1000 nM.
For the compound `C=CC(=O)N1CCC2(CC1)CN(c1cc3c(Nc4cc(-c5ccco5)ccc4OC)ncnc3cc1OC)C2` [Example 324, 1-(2-(4-((5-(furan-2-yl)-2-methoxyphenyl)amino)-7-methoxyquinazolin-6-yl)-2,7-diazaspiro[3.5]nonan-7-yl)prop-2-en-1-one], the GI50 is over 1000 nM in experiment [1] and 150 to 1000 nM in experiment [3].
`C=CC(=O)N1CCC2(CC1)CN(c1cc3c(Nc4cc(-c5ccc(F)cc5F)ccc4OC)ncnc3cc1OC)C2` [Example 325, 1-(2-(4-((2′,4′-difluoro-4-methoxy-[1,1′-biphenyl]-3-yl)amino)-7-methoxyquinazolin-6-yl)-2,7-diazaspiro[3.5]nonan-7-yl)prop-2-en-1-one]: the GI50 in experiment [1] and in experiment [3] was 150 to 1000 nM each time.
With `C=CC(=O)N1CC2(C1)CN(c1cc3c(Nc4cc(-c5ccco5)ccc4OC)ncnc3cc1OC)C2` [Example 326, 1-(6-(4-((5-(furan-2-yl)-2-methoxyphenyl)amino)-7-methoxyquinazolin-6-yl)-2,6-diazaspiro[3.3]heptan-2-yl)prop-2-en-1-one], the concentration for 50% growth inhibition (GI50) is over 1000 nM in experiment [1] and 150 to 1000 nM in experiment [3].

The values above are taken from patent US20240246940A1, “HETEROARYL DERIVATIVE COMPOUND AND USE THEREOF” (VORONOI INC., priority 2021, published 2024).
